In patent US8158615B2, “Anti-viral composition for the topical treatment of Herpes Labialis (cold sores) and method for use thereof” (priority 2006, dated 2012):
Blank lines part the entries; values can stand above or below the compound they belong to.

Experiments:
[1] = Percutaneous absorption of CTC-96 from Dermal ointment Formulation, finite dose technique, Franz Diffusion Cells; format: in vitro ADME, human; conditions: 48 hours; for Mass in Dermis / Mass in Receptor Solution / Percent of Applied Dose in Dermis / Percent of Applied Dose in Epidermis / Percent of Applied Dose in Receptor Solution: single application; for Percent of Applied Dose in Epidermis / Percent of Applied Dose in Receptor Solution / Mass in Epidermis / Mass in Surface wash / Mass, Total Recovery / Percent of Applied Dose in Surfacewash / Percent of Applied Dose, Total Recovery / Mass in Stratum Corneum / Percent of Applied Dose in Stratum Corneum: Mean ± SE; for Percent of Applied Dose in Receptor Solution: n = 3 donors; for Mass in Stratum Corneum / Percent of Applied Dose in Stratum Corneum: tape strip samples
Protocol: The percutaneous absorption of Doxovir-L® (CTC-96) was evaluated by mixing CTC-96 at two concentrations (10 mg/g and 1 mg/g) to homogeneity with a Dermal ointment Formulation (petrolatum 10% by weight, camphor 0.92% by weight, menthol 0.5% by weight, methyl salicylate 0.26% by weight, eucalyptus oil 0.30% by weight) and was determined in vitro, using the human cadaver skin model using the finite dose technique and Franz Diffusion Cells (12;13). Placebo consisted of the drug formulation without drug. The amount of Dermal ointment that is applied at each treatment was determined is shown in the following table (TABLE 1): The percutaneous absorption of Doxovir-L® (CTC-96) was determined is shown in the following table (TABLE 2 & TABLE 3): […]

HSV-1 = assay: Anti-viral activity of CTC-96 extracted from Dermal Ointment Formulation; format: cell-based; conditions: extract diluted to 2.5 μg/ml
Excerpt: FIG. 1 is a graphical representation showing the anti-viral activity of CTC-96 extracted from the dermal formulation.
CTC-96 was mixed to homogeneity with a Dermal Ointment Formulation (petrolatum 10% by weight, camphor 0.92% by weight, menthol 0.5% by weight, methyl salicylate 0.26% by weight, eucalyptus oil 0.30% by weight).

Herpes Labialis = conditions: 1% concentration; application after the prodromal phase; cited from earlier work

- Mass in Dermis ([1]; drug concentration 1 mg/g): 0 μg/cm2
- Mass in Receptor Solution ([1]; drug concentration 1 mg/g): 0 μg/cm2
- Percent of Applied Dose in Dermis ([1]; drug concentration 1 mg/g): 0% of Applied Dose
- Percent of Applied Dose in Epidermis ([1]; drug concentration 1 mg/g): 2.20 ± 1.09% of Applied Dose
- Percent of Applied Dose in Receptor Solution ([1]; drug concentration 1 mg/g): 0% of Applied Dose
- Mass in Epidermis ([1]; drug concentration 1 mg/g): 0.11 ± 0.05 μg/cm2
- Mass in Surface wash ([1]; drug concentration 1 mg/g): 3.17 ± 0.01 μg/cm2
- Mass, Total Recovery ([1]; drug concentration 1 mg/g): 4.83 ± 0.07 μg/cm2
- Percent of Applied Dose in Surfacewash ([1]; drug concentration 1 mg/g): 7.41 ± 0.30% of Applied Dose
- Percent of Applied Dose, Total Recovery ([1]; drug concentration 1 mg/g): 9.67 ± 1.34% of Applied Dose
- Mass in Stratum Corneum ([1]; drug concentration 1 mg/g): 0.03 ± 0.00 μg/cm2
- Percent of Applied Dose in Stratum Corneum ([1]; drug concentration 1 mg/g): 0.06 ± 0.06% of Applied Dose
- Mass in Dermis ([1]; drug concentration 10 mg/g): 0 μg/cm2
- Mass in Receptor Solution ([1]; drug concentration 10 mg/g): 0 μg/cm2
- Percent of Applied Dose in Dermis ([1]; drug concentration 10 mg/g): 0% of Applied Dose
- Percent of Applied Dose in Epidermis ([1]; drug concentration 10 mg/g): 3.63 ± 0.58% of Applied Dose
- Percent of Applied Dose in Receptor Solution ([1]; drug concentration 10 mg/g): 0% of Applied Dose
- Mass in Epidermis ([1]; drug concentration 10 mg/g): 1.81 ± 0.29 μg/cm2
- Mass in Surface wash ([1]; drug concentration 10 mg/g): 5.41 ± 1.90 μg/cm2
- Mass, Total Recovery ([1]; drug concentration 10 mg/g): 7.86 ± 1.56 μg/cm2
- Percent of Applied Dose in Surfacewash ([1]; drug concentration 10 mg/g): 10.81 ± 3.79% of Applied Dose
- Percent of Applied Dose, Total Recovery ([1]; drug concentration 10 mg/g): 15.72 ± 3.12% of Applied Dose
- Mass in Stratum Corneum ([1]; drug concentration 10 mg/g): 0.64 ± 0.33 μg/cm2
- Percent of Applied Dose in Stratum Corneum ([1]; drug concentration 10 mg/g): 1.29 ± 0.67% of Applied Dose
Compound: CC(/C=C(/C)[O-])=NCCN=C(C)/C=C(/C)[O-].Cc1ncc[nH]1.Cc1ncc[nH]1.[Br-].[Co+3] [CTC-96]
- % Inhibition Mean ± SD (HSV-1; incubated at 4° C., 3 mo): 91.5 ± 0.5%
- % Inhibition Mean ± SD (HSV-1; incubated at 4° C., 6 mo): 91.5 ± 3.4%
- % Inhibition Mean ± SD (HSV-1; incubated at 4° C., time 0): 91.8 ± 1.7%
- % Inhibition Mean ± SD (HSV-1; incubated at 40° C., 3 mo): 90.1 ± 0.8%
- % Inhibition Mean ± SD (HSV-1; incubated at 40° C., 6 mo): 92.1 ± 1.0%
- % Inhibition Mean ± SD (HSV-1; incubated at 40° C., time 0): 88.8 ± 2.7%

Compound: Nc1nc2c(ncn2CCC(CO)CO)c(=O)[nH]1 [penciclovir]
- reduction in symptoms and time to healing (Herpes Labialis): 20-30%
